Here are results for 15 compounds from patent publication US9290485B2, “N-((6-amino-pyridin-3-yl)methyl)-heteroaryl-carboxamides” (NOVARTIS AG, priority 2010, dated 2016).

As usually defined, the IC50 is the concentration that gives 50% inhibition. Read a high IC50 as weaker potency.

For the assay, the target named is human plasma kallikrein (Homo sapiens (Human), UniProt P03952). As to conditions: human plasma kallikrein 25 pM, substrate 0.5 uM, 1 hour pre-incubation at room temperature, read at t=60 min.
Chain of human plasma kallikrein (P03952 whole entry, looked up): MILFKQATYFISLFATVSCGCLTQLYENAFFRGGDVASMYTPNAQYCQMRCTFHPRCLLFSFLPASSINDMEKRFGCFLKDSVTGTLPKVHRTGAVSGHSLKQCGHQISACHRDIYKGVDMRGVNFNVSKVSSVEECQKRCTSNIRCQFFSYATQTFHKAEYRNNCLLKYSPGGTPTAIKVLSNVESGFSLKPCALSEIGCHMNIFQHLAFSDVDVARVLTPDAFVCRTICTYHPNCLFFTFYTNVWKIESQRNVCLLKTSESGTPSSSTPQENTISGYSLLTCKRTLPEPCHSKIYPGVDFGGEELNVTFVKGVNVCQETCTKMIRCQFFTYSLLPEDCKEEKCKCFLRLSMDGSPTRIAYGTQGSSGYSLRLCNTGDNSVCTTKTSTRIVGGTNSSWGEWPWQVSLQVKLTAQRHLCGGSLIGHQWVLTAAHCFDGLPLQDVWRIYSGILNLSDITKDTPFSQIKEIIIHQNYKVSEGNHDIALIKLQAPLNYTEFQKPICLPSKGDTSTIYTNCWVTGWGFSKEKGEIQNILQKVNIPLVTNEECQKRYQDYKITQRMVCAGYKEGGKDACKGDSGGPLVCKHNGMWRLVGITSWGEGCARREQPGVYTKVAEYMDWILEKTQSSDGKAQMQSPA
Chain of human plasma kallikrein (P03952 whole entry partner, looked up): as the sequence (P03952 whole entry, looked up) above
Description: All other chemicals were of analytical grade.
A stock solution of 0.17 mg/ml deinonized water was stored at −80° C. Enzymatic reactions were conducted in ‘assay buffer’, comprising 50 mM Hepes/NaOH at pH 7.8, 150 mM NaCl, 1 mM EDTA and 0.05% (w/v) CHAPS.
Both, enzyme and substrate were diluted in assay buffer.
All protein and peptide containing solutions were handled in siliconized tubes (Life Systems Design, Merenschwand, Switzerland). […] Plate measurements were conducted by the means of a Safire2 reader (TECAN, Maennedorf, Switzerland). The Safire2 is a monochomator-based instrument and wavelengths of 485 nm and 535 nm were taken for fluorescence excitation and emission acquisition, respectively. The bandwidths were set to 10 nm in both the excitation and the emission path. The fluorescence in each well was excited by three flashes per measurement.
The test compound was dissolved in 90% (v/v) DMSO/water. For the assays, 250 nL of the 90% (v/v) DMSO/water solution or compound solution were added per well, followed by the addition of 12.5 μl protease solution (protease in assay buffer). […] After 1 hour of pre-incubation at room temperature, the reactions were started by the addition of 12.5 μl substrate solution (in assay buffer, final assay concentration was 0.5 uM). After the addition of the substrate solution, the final DMSO concentration in the assay was 0.9% (v/v). […] The IC50 value was calculated from the plot of percentage of inhibition vs. inhibitor concentration by a logistics fit according to the following equation: y=A2+(A1−A2)/(1+(x/IC50)^p) where y is the %-inhibition at the inhibitor concentration, x. A1 is the lowest inhibition value, i.e. 0%, and A2 the maximum inhibition value, i.e. 100%. The exponent, p, is the Hill coefficient. The curve fitting was conducted with the non-linear regression routine of the analysis software Origin 7.55R6 (OriginLab Corporation).
Compound `Cc1cc(N)nc(C)c1CNC(=O)c1cnn(C(C)c2ccccc2)c1` (stereo not drawn) [Example 100, N-((6-amino-2,4-dimethylpyridin-3-yl)methyl)-1-(1-phenylethyl)-1H-pyrazole-4-carboxamide] showed an IC50 of 0.642 µM. That is a sub-micromolar value.
To `Cc1cc(N)nc(C)c1CNC(=O)c1cn(Cc2cccc3ccccc23)nn1` [Example 39, N-((6-amino-2,4-dimethylpyridin-3-yl)methyl)-1-(naphthalen-1-ylmethyl)-1H-1,2,3-triazole-4-carboxamide] belongs 0.634 µM; to `Cc1cc(N)nc(C)c1CNC(=O)c1cn(Cc2ccc(Cn3ccnc3)cc2)nn1` [Example 45, 1-(4-((1H-imidazol-1-yl)methyl)benzyl)-N-((6-amino-2,4-dimethylpyridin-3-yl)methyl)-1H-1,2,3-triazole-4-carboxamide], 0.045 µM; to `Cc1cc(N)nc(C)c1CNC(=O)c1cnn(Cc2ccc(CN3CCCC3)cc2)c1` [Example 118, N-((6-amino-2,4-dimethylpyridin-3-yl)methyl)-1-(4-(pyrrolidin-1-ylmethyl)benzyl)-1H-pyrazole-4-carboxamide], 0.183 µM.
On to `Cc1ccc2cc(Cn3cc(C(=O)NCc4ccc(N)nc4C)cn3)ccc2n1` [Example 159, N-((6-amino-2-methylpyridin-3-yl)methyl)-1-((2-methylquinolin-6-yl)methyl)-1H-pyrazole-4-carboxamide], for which it took 0.007 µM to reach half-maximal inhibition (IC50).
With `Cc1cc(N)nc(C)c1CNC(=O)c1cnn(Cc2cccc3c2OCCCO3)c1` [Example 95, N-((6-amino-2,4-dimethylpyridin-3-yl)methyl)-1-((3,4-dihydro-2H-benzo[b][1,4]dioxepin-6-yl)methyl)-1H-pyrazole-4-carboxamide], inhibition was half-maximal at 0.485 µM (IC50).
In the case of `Cc1cc(N)nc(C)c1CNC(=O)c1cnn(Cc2ccc(F)c(F)c2)c1` [Example 90, N-((6-amino-2,4-dimethylpyridin-3-yl)methyl)-1-(3,4-difluorobenzyl)-1H-pyrazole-4-carboxamide], the midpoint of inhibition, the IC50, lay at 2 µM.
To `Cc1cc(N)nc(C)c1CNC(=O)c1cnn(Cc2cc3ccccc3o2)c1` [Example 31] belongs 0.143 µM; to `Cc1cc(N)nc(C)c1CNC(=O)c1ccn(S(=O)(=O)c2ccccc2)c1C` [Example 176, N-((6-Amino-2,4-dimethylpyridin-3-yl)methyl)-2-methyl-1-(phenylsulfonyl)-1H-pyrrole-3-carboxamide], 45 µM.
To `Cc1nc(N)cc(OCC(N)=O)c1CNC(=O)c1cnn(Cc2ccccc2)c1` [Example 77, N-((6-amino-4-(2-amino-2-oxoethoxy)-2-methylpyridin-3-yl)methyl)-1-benzyl-1H-pyrazole-4-carboxamide] belongs 0.072 µM; to `Cc1cc(N)nc(C)c1CNC(=O)c1cnn(Cc2ccc(Cl)cc2)c1` [Example 96, N-((6-amino-2,4-dimethylpyridin-3-yl)methyl)-1-(4-chlorobenzyl)-1H-pyrazole-4-carboxamide], 0.291 µM.
The compound `Cc1noc(-c2ccc(Cn3cc(C(=O)NCc4c(C)cc(N)nc4C)cn3)cc2)n1` [Example 91, N-((6-amino-2,4-dimethylpyridin-3-yl)methyl)-1-(4-(3-methyl-1,2,4-oxadiazol-5-yl)benzyl)-1H-pyrazole-4-carboxamide] came in with an IC50 of 0.133 µM.
To `Cc1cc(C)c2cc(Cn3cc(C(=O)NCc4ccc(N)nc4C)cn3)c(C)nc2c1` [Example 161, N-((6-amino-2-methylpyridin-3-yl)methyl)-1-((2,5,7-trimethylquinolin-3-yl)methyl)-1H-pyrazole-4-carboxamide] belongs 0.004 µM; to `Cc1cc(N)nc(C)c1CNC(=O)c1cnn(Cc2ccc3ccccc3c2)c1` [Example 83, N-((6-amino-2,4-dimethylpyridin-3-yl)methyl)-1-(naphthalen-2-ylmethyl)-1H-pyrazole-4-carboxamide], 0.018 µM.
`Cc1cc(N)nc(C)c1CNC(=O)c1nnc(Cc2ccccc2)o1` [Example 4, N-((6-amino-2,4-dimethylpyridin-3-yl)methyl)-5-benzyl-1,3,4-oxadiazole-2-carboxamide]: the IC50 stood at 7.6 µM. This IC50 lies about 420-fold higher than the previous one.
